Values quoted from earlier work as cited in patent US20040019053A1, “Combination of an allosteric carboxylic inhibitor of matrix metalloproteinase-13 with celecoxib or valdecoxib” (priority 2002, published 2004).

In the case of `Cc1onc(-c2ccccc2)c1-c1ccc(S(N)(=O)=O)cc1` [valdecoxib, 4-(5-methyl-3-phenyl-4-isoxazolyl)-benzenesulfonamide], the Tolerability (combined analysis of clinical studies) is given as “well tolerated” and the “Overall upper gastrointestinal safety profile (ulcers, perforations, obstructions and GI bleeds)” value (versus ibuprofen, diclofenac and naproxen) is given as “significantly better than the conventional NSAIDs studied”.
